Source: patent US20240400564A1 (Syndax Pharmaceuticals, Inc, priority 2021, published 2024)

Each molecule was assayed against T1, human Menin and N-terminal portion of human MLL (amino acids 4-43) (Homo sapiens, UniProt O00255) (assay: Menin-MLL competition assay (HTRF)). Conditions: 1 hr incubation.
T1 construct: H-FL-Menin diluted to 4 nM in assay buffer
T1 sequence (O00255 1-610): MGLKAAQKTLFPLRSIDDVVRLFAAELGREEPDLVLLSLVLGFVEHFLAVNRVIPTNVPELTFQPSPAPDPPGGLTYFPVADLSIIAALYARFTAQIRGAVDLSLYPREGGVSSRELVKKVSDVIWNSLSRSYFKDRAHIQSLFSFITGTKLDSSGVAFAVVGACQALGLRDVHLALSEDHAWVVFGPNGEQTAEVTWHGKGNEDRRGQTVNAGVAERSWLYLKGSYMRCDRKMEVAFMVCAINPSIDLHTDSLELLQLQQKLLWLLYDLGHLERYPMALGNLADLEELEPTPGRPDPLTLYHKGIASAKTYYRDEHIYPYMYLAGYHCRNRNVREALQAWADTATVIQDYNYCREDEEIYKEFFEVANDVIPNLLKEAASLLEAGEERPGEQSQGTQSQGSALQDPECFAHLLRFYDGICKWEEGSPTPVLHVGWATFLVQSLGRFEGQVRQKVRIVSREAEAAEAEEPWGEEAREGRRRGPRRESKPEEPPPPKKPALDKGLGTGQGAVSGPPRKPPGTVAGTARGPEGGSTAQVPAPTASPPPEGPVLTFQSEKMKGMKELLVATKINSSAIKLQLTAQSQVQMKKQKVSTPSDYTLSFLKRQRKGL
Format: binding
Text: Menin-MLL is a competition assay between human Menin and N-terminal portion of human MLL representing amino acids 4-43 of the protein. The interaction between Menin and MLL peptide was monitored by HTRF employing Terbium labeled anti-His6 antibody directed to the N-terminal His6-tag on recombinant Menin and FITC group covalently attached to the MLL peptide. The N-terminal fragment of MLL, retained in all MLL fusion proteins, is involved in the interactions with Menin, and this protein-protein interaction is critical for the MLL fusion proteins mediated leukemogenic transformations.
For IC50 determination test compounds were prepared as 10 mM DMSO stock solutions. Considering DMSO as the vehicle in the assay system. Lower sub-stocks of 50 μM were prepared from the 10 mM stock solution. To test the compounds in assay, 3.16-fold serial dilutions are made in 100% DMSO. Mid-stock of 50×compounds (50 μM) were serially diluted (3.16 fold) in 100% DMSO in Polypropylene plate. In assay plate 1 micro-litre of the previously prepared compound dilution was stamped. H-FL-Menin diluted to 4 nM in assay buffer (50 mM Tris-HCl, pH 7.4, 50 mM NaCl, freshly prepared 1 mM DTT, 0.01% BSA, 0.005% Triton X-100) was pre-incubated with 8 nM anti-His6-Tb for 30 min at room temperature. FITC-MLL-4-43 was diluted to 2 nM in assay buffer and 25 μL was dispensed into each well of the assay plate followed by addition of 25 μl of pre-incubated H-FL-Menin and anti-His6-Tb mixture. Final concentration H-FL-Menin diluted to 1 nM in assay plate with 2 nM anti-His6-Tb and 1 nM FITC-MLL-4-43. After 1 hr incubation at room temperature, the HTRF signal was measured on the Spark multi-label plate reader. Resulting data were captured as a ratio of RFU520/RFU485×1000. The max values were obtained from 0% inhibition in presence of 2% DMSO and the min. values were 100% inhibition in presence of 1 μM reference compound.

SMILES	IC50 [nM]
CCCS(=O)(=O)N[C@@H]1CC[C@@H](CN2CCC3(CC2)CN(c2ncncc2Oc2ccc(F)cc2C(=O)N(CC)C(C)C)C3)OC1 [Example 9, N-Ethyl-5-fluoro-N-isopropyl-2-((4-(7-(((2S,5R)-5-(propylsulfonamido)tetrahydro-2H-pyran-2-yl)methyl)-2,7-diazaspiro[3.5]nonan-2-yl)pyrimidin-5-yl)oxy)benzamide]	< 100
CC(C)N(C(=O)c1cc(F)ccc1Oc1cncnc1N1CC2(CCN(C[C@@H]3CC[C@@H](NC(=O)OC(C)(C)C)CO3)CC2)C1)C1CC1 [Example 17, tert-Butyl ((3R,6S)-6-((2-(5-(2-(cyclopropyl(isopropyl)carbamoyl)-4-fluorophenoxy)pyrimidin-4-yl)-2,7-diazaspiro[3.5]nonan-7-yl)methyl)tetrahydro-2H-pyran-3-yl)carbamate]	< 100
CC(C)N(C(=O)c1cc(F)ccc1Oc1cncnc1N1CC2(CCN(C[C@@H]3CC[C@@H](NS(=O)(=O)C(C)C)CO3)CC2)C1)C1CC1 [Example 20, N-Cyclopropyl-5-fluoro-N-isopropyl-2-((4-(7-(((2S,5R)-5-((1-methylethyl)sulfonamido)tetrahydro-2H-pyran-2-yl)methyl)-2,7-diazaspiro[3.5]nonan-2-yl)pyrimidin-5-yl)oxy)benzamide]	< 100
CC(C)N(C(=O)c1cc(F)ccc1Oc1cncnc1N1CC2(CCN(C[C@@H]3CC[C@@H](NS(=O)(=O)C4COC4)CO3)CC2)C1)C1CC1 [Example 22, N-Cyclopropyl-5-fluoro-N-isopropyl-2-((4-(7-(((2S,5R)-5-(oxetane-3-sulfonamido)tetrahydro-2H-pyran-2-yl)methyl)-2,7-diazaspiro[3.5]nonan-2-yl)pyrimidin-5-yl)oxy)benzamide]	< 100
C[C@@H]1COC[C@H](C)N1C(=O)c1cc(F)ccc1Oc1cncnc1N1CC2(CCN(C[C@@H]3CC[C@@H](NS(C)(=O)=O)CO3)CC2)C1 [Example 23, N-((3R,6S)-6-((2-(5-(2-((3S,5R)-3,5-Dimethylmorpholine-4-carbonyl)-4-fluorophenoxy)pyrimidin-4-yl)-2,7-diazaspiro[3.5]nonan-7-yl)methyl)tetrahydro-2H-pyran-3-yl)methanesulfonamide]	< 100
CCS(=O)(=O)N[C@@H]1CC[C@@H](CN2CCC3(CC2)CN(c2ncncc2Oc2ccc(F)cc2C(=O)N2[C@H](C)COC[C@@H]2C)C3)OC1 [Example 24, N-((3R,6S)-6-((2-(5-(2-((3S,5R)-3,5-dimethylmorpholine-4-carbonyl)-4-fluorophenoxy)pyrimidin-4-yl)-2,7-diazaspiro[3.5]nonan-7-yl)methyl)tetrahydro-2H-pyran-3-yl)ethanesulfonamide]	< 100
CC(C)S(=O)(=O)N[C@@H]1CC[C@@H](CN2CCC3(CC2)CN(c2ncncc2Oc2ccc(F)cc2C(=O)N2[C@H](C)COC[C@@H]2C)C3)OC1 [Example 25, N-((3R,6S)-6-((2-(5-(2-((3S,5R)-3,5-Dimethylmorpholine-4-carbonyl)-4-fluorophenoxy)pyrimidin-4-yl)-2,7-diazaspiro[3.5]nonan-7-yl)methyl)tetrahydro-2H-pyran-3-yl)propane-2-sulfonamide]	< 100
C[C@@H]1COC[C@H](C)N1C(=O)c1cc(F)ccc1Oc1cncnc1N1CC2(CCN(C[C@@H]3CC[C@@H](NS(=O)(=O)C4CC4)CO3)CC2)C1 [Example 26, N-((3R,6S)-6-((2-(5-(2-((3S,5R)-3,5-Dimethylmorpholine-4-carbonyl)-4-fluorophenoxy)pyrimidin-4-yl)-2,7-diazaspiro[3.5]nonan-7-yl)methyl)tetrahydro-2H-pyran-3-yl)cyclopropanesulfonamide]	< 100
C[C@@H]1COC[C@H](C)N1C(=O)c1cc(F)ccc1Oc1cncnc1N1CC2(CCN(C[C@@H]3CC[C@@H](NS(=O)(=O)C4COC4)CO3)CC2)C1 [Example 27, N-((3R,6S)-6-((2-(5-(2-((3S,5R)-3,5-Dimethylmorpholine-4-carbonyl)-4-fluorophenoxy)pyrimidin-4-yl)-2,7-diazaspiro[3.5]nonan-7-yl)methyl)tetrahydro-2H-pyran-3-yl)oxetane-3-sulfonamide]	< 100
C[C@@H]1COC[C@@H](C)N1C(=O)c1cc(F)ccc1Oc1cncnc1N1CC2(CCN(C[C@@H]3CC[C@@H](NS(C)(=O)=O)CO3)CC2)C1 [Example 28, N-((3R,6S)-6-((2-(5-(2-((3R,5R)-3,5-Dimethylmorpholine-4-carbonyl)-4-fluorophenoxy)pyrimidin-4-yl)-2,7-diazaspiro[3.5]nonan-7-yl)methyl)tetrahydro-2H-pyran-3-yl)methanesulfonamide]	< 100
CCS(=O)(=O)N[C@@H]1CC[C@@H](CN2CCC3(CC2)CN(c2ncncc2Oc2ccc(F)cc2C(=O)N2[C@H](C)COC[C@H]2C)C3)OC1 [Example 29, N-((3R,6S)-6-((2-(5-(2-((3R,5R)-3,5-Dimethylmorpholine-4-carbonyl)-4-fluorophenoxy)pyrimidin-4-yl)-2,7-diazaspiro[3.5]nonan-7-yl)methyl)tetrahydro-2H-pyran-3-yl)ethanesulfonamide]	< 100
CC(C)S(=O)(=O)N[C@@H]1CC[C@@H](CN2CCC3(CC2)CN(c2ncncc2Oc2ccc(F)cc2C(=O)N2[C@H](C)COC[C@H]2C)C3)OC1 [Example 30, N-((3R,6S)-6-((2-(5-(2-((3R,5R)-3,5-Dimethylmorpholine-4-carbonyl)-4-fluorophenoxy)pyrimidin-4-yl)-2,7-diazaspiro[3.5]nonan-7-yl)methyl)tetrahydro-2H-pyran-3-yl)propane-2-sulfonamide]	< 100
C[C@@H]1COC[C@@H](C)N1C(=O)c1cc(F)ccc1Oc1cncnc1N1CC2(CCN(C[C@@H]3CC[C@@H](NS(=O)(=O)C4CC4)CO3)CC2)C1 [Example 31, N-((3R,6S)-6-((2-(5-(2-((3R,5R)-3,5-dimethylmorpholine-4-carbonyl)-4-fluorophenoxy)pyrimidin-4-yl)-2,7-diazaspiro[3.5]nonan-7-yl)methyl)tetrahydro-2H-pyran-3-yl)cyclopropanesulfonamide]	< 100
C[C@@H]1COC[C@@H](C)N1C(=O)c1cc(F)ccc1Oc1cncnc1N1CC2(CCN(C[C@@H]3CC[C@@H](NS(=O)(=O)C4COC4)CO3)CC2)C1 [Example 32, N-((3R,6S)-6-((2-(5-(2-((3R,5R)-3,5-Dimethylmorpholine-4-carbonyl)-4-fluorophenoxy)pyrimidin-4-yl)-2,7-diazaspiro[3.5]nonan-7-yl)methyl)tetrahydro-2H-pyran-3-yl)oxetane-3-sulfonamide]	< 100
CCS(=O)(=O)N[C@@H]1CC[C@@H](CN2CCC3(CC2)CN(c2ncncc2Oc2ccc(F)cc2C(=O)N(CCOC)C(C)C)C3)OC1 [Example 35, 2-((4-(7-(((2S,5R)-5-(Ethylsulfonamido)tetrahydro-2H-pyran-2-yl)methyl)-2,7-diazaspiro[3.5]nonan-2-yl)pyrimidin-5-yl)oxy)-5-fluoro-N-isopropyl-N-(2-methoxyethyl)benzamide]	< 100
CCS(=O)(=O)N[C@@H]1CC[C@@H](CN2CCC3(CC2)CN(c2ncncc2Oc2ccc(F)cc2C(=O)N2[C@H](C)CCC[C@@H]2C)C3)OC1 [Example 36, N-((3R,6S)-6-((2-(5-(2-((2S,6R)-2,6-Dimethylpiperidine-1-carbonyl)-4-fluorophenoxy)pyrimidin-4-yl)-2,7-diazaspiro[3.5]nonan-7-yl)methyl)tetrahydro-2H-pyran-3-yl)ethanesulfonamide]	< 100
CCNC(=O)N[C@@H]1CC[C@@H](CN2CCC3(CC2)CN(c2ncncc2Oc2ccc(F)cc2C(=O)N(CC)C(C)C)C3)OC1 [Example 39, N-Ethyl-2-((4-(7-(((2S,5R)-5-(3-ethylureido)tetrahydro-2H-pyran-2-yl)methyl)-2,7-diazaspiro[3.5]nonan-2-yl)pyrimidin-5-yl)oxy)-5-fluoro-N-isopropylbenzamide]	< 100
